Converted amounts (≈) assume the structure as drawn. Like-named read-outs stand apart in the source and are kept apart here.
How the values were obtained:
[1] = molecular target: S. aureus methionyl-tRNA synthetase (MRS) (Staphylococcus aureus, UniProt Q5HII6); test: t-RNA synthetase biochemical assay (MRS); conditions: average of two replicates with s.d.
[2] = tested on: S. aureus WCUH29 wild type; test: MIC broth microdilution; type: cell-based, Staphylococcus aureus; conditions: Staphylococcus aureus, WCUH29WILDTYPE; S. aureus WCUH29 wild type; read-out: MIC
[3] = tested on: S. aureus RN4220 (pYH4) and RN4220 (pYH4-MRS); test: MoA study: MIC in MRS overexpressor strain; type: cell-based, Staphylococcus aureus; conditions: for MIC: Staphylococcus aureus
[4] = tested on: E. coli TOP10 ∆TolC, pHN678’ and pHN678’-LolA antisense; test: MoA study: MIC in lolA antisense expressor; type: cell-based, Escherichia coli; conditions: for MIC: Escherichia coli
[5] = molecular target: M. tuberculosis Dihydrofolate reductase (DHFR) (Mycobacterium tuberculosis, UniProt P9WNX1); test: biochemical; conditions: M. tuberculosis DHFR; average of two replicates with s.d.; read-out: IC50
Sequence of M. tuberculosis Dihydrofolate reductase (DHFR) (P9WNX1 whole entry): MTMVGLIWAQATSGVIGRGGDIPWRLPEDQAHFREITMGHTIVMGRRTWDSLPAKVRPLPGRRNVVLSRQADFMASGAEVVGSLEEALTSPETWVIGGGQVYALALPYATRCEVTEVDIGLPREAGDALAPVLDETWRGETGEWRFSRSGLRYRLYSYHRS

[6] = tested on: M. tuberculosis H37Rv; test: MIC determination against M. tuberculosis H37Rv (resazurin); type: cell-based; conditions: Mycobacterium tuberculosis
Description: (§1) 409 remaining NADPH to convert resazurin into the fluorescent resorufin14. The assay buffer containing
(§2) 410 81.4 mM Hepes pH 7.8, 300 mM KCl, 0.4 mg/mL BSA was used to make the enzyme addition containing
(§3) 411 1.2 μg/mL Mtb DHFR and 50 μM NADPH. This was added in equal volume (5 μL) to a substrate solution
(§4) 412 composed of 240 µM DHF in H2O and incubated for 50 min. Developing solution was prepared with
(§5) 413 0.045 mM Resazurin and 0.6 U/ml Diaphorase in 200 mM sodium phosphate buffer pH 7.8 and 5 μL was
(§6) 414 added. The experiments were conducted in black 384-well plates (Greiner Catalog # 784076) and all
(§7) 415 liquid additions were conducted using a Multidrop combi (Thermo Scientific). The plate was read on a
(§8) 416 ViewLux following a 10 minute delay. Resorufin light production was measured using appropriate
(§9) 417 Viewlux filters: Ex: 525 / 20 Pol (BODIPY TMR FP) Em: 598 / 25 (BODIPY TMR) (B04). Assay plates were
(§10) 418 pre-dispensed with 100 nL DMSO or with 100 nL compounds dissolved in neat DMSO using an Echo®
(§11) 419 liquid handler (Labcyte Inc.) where all wells contained compound samples, except wells in columns 6
420 and 18 that contained DMSO control. Column 6 represented 100% Mtb DHFR activity in the absence of
421 GSK compounds. […] Compounds were
422 tested at 1% DMSO in 11 point dose response with a 1:3 dilution and fit to a standard 4 parameter fit to
423 calculate an IC50 value and are reported as the average of two replicates. Standard deviation values
424 were calculated using the n-1 method.
428 Minimum Inhibitory Concentration Assays:
429 MIC determination against M. tuberculosis H37Rv:
430 The measurement of the Minimum Inhibitory Concentration (MIC) against M. tuberculosis H37Rv for
431 each tested compound was performed in 96-well flat-bottom, polystyrene microtiter plates in a final
432 volume of 100 μl. Ten two-fold drug dilutions in neat DMSO starting at 50 mM were performed. Drug […]
(§12) 440 saline). […] Fluorescence was measured (Spectramax M5 […]
(§13) 444 Minimum inhibitory concentrations (MICs) of compounds were determined using broth microdilution […]

[7] = tested on: Acinetobacter baumannii BM4652 ΔadeABC ΔadeIJK (efflux mutant); test: MIC broth microdilution; type: cell-based
[8] = tested on: Escherichia coli 7623 ΔtolC; test: MIC broth microdilution; type: cell-based
[9] = tested on: Klebsiella pneumoniae 1161486a ΔtolC; test: MIC broth microdilution; type: cell-based
[10] = tested on: Pseudomonas aeruginosa PA0322 Δ(mexAB-oprM) Δ(mexCD-oprJ) Δ(mexEF-oprN); test: MIC broth microdilution; type: cell-based
[11] = tested on: Acinetobacter baumannii ATCC 19606-1 ΔLpxC; test: MIC broth microdilution; type: cell-based; conditions: ATCC19606
[12] = tested on: Staphylococcus aureus RN4220; test: MIC broth microdilution; type: cell-based; conditions: S. aureus RN4220 Gram-positive
Description: as §1, §2, §3, §4, §5, §6, §7, §8, §9, §10, §11
420 and 18 that contained DMSO control. Column 6 represented 100% Mtb DHFR activity in the absence of […]
424 were calculated using the n-1 method. […]
as §12, §13

[13] = tested on: A. baumannii BM4652 strains; test: Potentiation of teicoplanin MIC by LpxA compound 4; type: cell-based, Acinetobacter baumannii
[14] = tested on: A. baumannii BM4652, BM4652/pRK415, BM4652/pRK415-LpxA; test: MoA study: MIC and MGIC in LpxA overexpressor; type: cell-based; conditions: Acinetobacter baumannii
[15] = tested on: H. influenzae ΔtolC; test: MIC broth microdilution; type: cell-based; conditions: Haemophilus influenzae
[16] = E. coli TOP10 ∆TolC + pHN678’-LolA antisense
[17] = A. baumannii BM652 efflux strain
[18] = A. baumannii BM4652 ΔadeABC ΔadeIJK efflux mutant

Sequence of S. aureus methionyl-tRNA synthetase (MRS) (Q5HII6 whole entry): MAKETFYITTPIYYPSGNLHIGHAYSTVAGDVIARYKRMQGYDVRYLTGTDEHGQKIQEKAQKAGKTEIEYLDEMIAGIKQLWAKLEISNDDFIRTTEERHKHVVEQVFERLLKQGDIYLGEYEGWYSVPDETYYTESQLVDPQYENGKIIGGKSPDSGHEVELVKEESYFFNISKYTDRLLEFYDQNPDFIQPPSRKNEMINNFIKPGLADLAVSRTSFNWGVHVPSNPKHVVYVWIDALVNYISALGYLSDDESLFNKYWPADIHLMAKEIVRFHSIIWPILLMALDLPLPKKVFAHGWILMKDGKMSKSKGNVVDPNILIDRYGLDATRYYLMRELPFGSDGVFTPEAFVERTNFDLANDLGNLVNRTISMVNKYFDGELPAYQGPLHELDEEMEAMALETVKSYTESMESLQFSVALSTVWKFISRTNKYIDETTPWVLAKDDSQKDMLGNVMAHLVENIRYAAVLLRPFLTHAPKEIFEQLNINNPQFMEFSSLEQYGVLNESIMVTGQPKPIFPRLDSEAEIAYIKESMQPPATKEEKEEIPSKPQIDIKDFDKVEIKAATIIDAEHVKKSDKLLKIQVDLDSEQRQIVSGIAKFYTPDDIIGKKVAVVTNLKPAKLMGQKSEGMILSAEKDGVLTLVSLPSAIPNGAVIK

| Compound | MIC ([4]; E. coli TOP10 ∆TolC + pHN678’) [µg/mL] | MIC [4, 16] [µg/mL] | MIC [7, 17] [µg/mL] | MIC [7, 18] [µg/mL] | MIC [8] [µg/mL] | MIC [9] [µg/mL] | MIC [10] [µg/mL] | MIC [11] [µg/mL] | MIC [12] [µg/mL] | also measured |
| --- | --- | --- | --- | --- | --- | --- | --- | --- | --- | --- |
| CNC(=O)c1ccc2c(c1)nc(-c1ccc(Br)c(O)c1)n2C(CNC(=O)COc1ccccc1C(C)(C)C)c1ccc(OC)c(OC)c1 (stereo not drawn) [Compound 1] |  |  |  |  |  |  |  |  |  | IC50 [1]: 0.83 ± 0.05 nM; MIC [2]: 0.5 µg/mL (≈ 0.699 µM); MIC increase ([3]; MRS overexpressor induced with 0.1 μg ml^−1 anhydrotetracycline vs vector control strain): > 128 fold; MIC increase ([3]; MRS overexpressor uninduced vs vector control strain): 8 fold; MIC ([3]; S. aureus RN4220 pYH4-MRS (induced with 0.1 µg/ml anhydrotetracycline)): 64 µg/mL (≈ 89.4 µM); MIC ([3]; S. aureus RN4220 pYH4-MRS overexpressor (uninduced)): 4 µg/mL (≈ 5.59 µM); MIC ([3]; S. aureus RN4220 pYH4 vector alone): 0.5 µg/mL (≈ 0.699 µM) |
| O=C(O)c1cn(C2CC2)c2cc(N3CCNCC3)c(F)cc2c1=O [Ciprofloxacin] | 0.0078 | 0.0078 |  |  |  |  |  |  |  |  |
| Cc1ccc(S(=O)(=O)NCCN(CCC(N)=O)C(=O)c2cc(O)cc(NC(=O)CN3C(=O)C(C)Oc4ccccc43)c2)cc1 (stereo not drawn) [Compound 7] |  |  |  |  |  |  |  |  |  | IC50 [5]: 492 ± 4 nM; MIC [6]: 80 µM (≈ 49.9 µg/mL) |
| C[C@@H](O)[C@H]1C(=O)N2C(C(=O)O)=C(SCCN=CN)C[C@H]12 [Imipenem] | 1 | 1 |  |  |  |  |  |  |  |  |
| Cc1cc(C)c(NC(=O)NC(CCC(=O)N2CCN(C)CC2)C(=O)Nc2cccc3c2CCCC3)c(C)c1 (stereo not drawn) [Compound 4] |  |  | > 64 | > 128 | > 128 | > 128 | > 128 | > 128 | > 128 | concentration of compound 4 required to completely potentiate teicoplanin ([13]; A. baumannii BM4652): 32 µg/mL; concentration of compound 4 required to completely potentiate teicoplanin ([13]; A. baumannii BM4652 with LpxA overexpressor clone): > 128 µg/mL; MIC ([14]; A. baumannii BM4652 (efflux-)): > 128 µg/mL; MIC ([14]; A. baumannii BM4652/pRK415 (efflux-)): > 128 µg/mL; MIC ([14]; A. baumannii BM4652/pRK415-LpxA (efflux-)): > 128 µg/mL; MIC ([14]; read-out: MGIC (minimum growth inhibition concentration), A. baumannii BM4652 (efflux-)): 8 µg/mL (≈ 15.4 µM); MIC ([14]; read-out: MGIC (minimum growth inhibition concentration), A. baumannii BM4652/pRK415 (efflux-)): 8 µg/mL (≈ 15.4 µM); MIC ([14]; read-out: MGIC (minimum growth inhibition concentration), A. baumannii BM4652/pRK415-LpxA (efflux-)): > 128 µg/mL |
| CCNc1cc(N2CCc3cc(NS(C)(=O)=O)ccc3C2C)nc(-c2cc(F)cc(C#N)c2)n1 (stereo not drawn) [Compound 6] | 128 | 4 | > 128 | > 128 | > 128 | > 128 | > 128 | 32 (≈ 66.6 µM) | > 128 | MIC [15]: 2 µg/mL (≈ 4.16 µM); Fold MIC decrease ([4]; lolA antisense plasmid compared to vector alone): 32 fold |

From PMC5520047, “Prioritizing multiple therapeutic targets in parallel using automated DNA-encoded library screening” (Nature Communications, 2017)
